# Results published in patent US12251459B2, “Compositions, formulations, and methods for hair treatment” (Oddity Labs, LLC, priority 2022, dated 2025).
# System: human hair follicle dermal papilla cells (hFDPC)
# Experiment: Human follicle dermal papilla cells (hFDPC) proliferation assay
# Format: cell-based
# Conditions: hFDPCs supplemented with BIO, BMP-2 and FGFβ
# Description: In Table 8, A represents less than 20% of increased proliferation of hFDPCs, B represents 20-40%, and C represents larger than 40% of increased proliferation of hFDPCs.
row,SMILES,Percent Increase Proliferation of hFDPCs (%)
1,C=CCc1cc(/C=C2\C(=O)NC(=O)N(c3ccc(C(C)C)cc3)C2=O)cc(OC)c1O [I-1],A (A represents less than 20% of increased proliferation of hFDPCs)
2,"C=CCc1cc(/C=C2\C(=O)NC(=O)N(c3cc(C)cc(C)c3)C2=O)cc(OCC)c1O [I-2, 2,4,6(1H,3H,5H)-Pyrimidinetrione, 1-(3,5-dimethylphenyl)-5-[[3-ethoxy-4-hydroxy-5-(2-propen-1-yl)phenyl]methylene]-]",B (B represents 20-40%)
3,"C=CCc1cc(/C=C2\C(=O)NC(=O)N(c3cc(C)cc(C)c3)C2=O)cc(OC)c1O [I-3, 2,4,6(1H,3H,5H)-Pyrimidinetrione, 1-(3,5-dimethylphenyl)-5-[[4-hydroxy-3-methoxy-5-(2-propen-1-yl)phenyl]methylene]-]",A (A represents less than 20% of increased proliferation of hFDPCs)
4,C=CCc1cc(/C=C2\C(=O)NC(=O)N(c3ccc(C)c(C)c3)C2=O)cc(OC)c1O [I-4],A (A represents less than 20% of increased proliferation of hFDPCs)
5,"COc1cc(/C=C2\C(=O)NC(=O)N(Cc3ccccc3)C2=O)cc(OC)c1O [I-5, 2,4,6(1H,3H,5H)-Pyrimidinetrione, 5-[(4-hydroxy-3,5-dimethoxyphenyl)methylene]-1-(phenylmethyl)-]",B (B represents 20-40%)
6,"C=CCN1C(=O)NC(=O)/C(=C\c2ccc(OC)cc2OC)C1=O [I-6, 2,4,6(1H,3H,5H)-Pyrimidinetrione, 5-[(2,4-dimethoxyphenyl)methylene]-1-(2-propen-1-yl)-]",A (A represents less than 20% of increased proliferation of hFDPCs)
7,C=CCOc1ccc(/C=C2/C(=O)NC(=O)N(CC=C)C2=O)cc1OC [I-7],A (A represents less than 20% of increased proliferation of hFDPCs)
8,C=CCc1cc(C=C2C(=O)NC(=S)NC2=O)cc(OCC)c1O [I-8],B (B represents 20-40%)
9,"C=CCc1cc(C=C2C(=O)NC(=S)NC2=O)cc(OC)c1O [I-9, 4,6(1H,5H)-Pyrimidinedione, dihydro-5-[[4-hydroxy-3-methoxy-5-(2-propen-1-yl)phenyl]methylene]-2-thioxo-]",B (B represents 20-40%)
10,C=CCc1cc(/C=C2\C(=O)NC(=S)N(C)C2=O)cc(OC)c1OCC [I-10],A (A represents less than 20% of increased proliferation of hFDPCs)
11,"COc1ccc(/C=C2\C(=O)NC(=O)N(C)C2=O)c(OC)c1 [I-11, 2,4,6(1H,3H,5H)-Pyrimidinetrione, 5-[(2,4-dimethoxyphenyl)methylene]-1-methyl-, (5E)-]",A (A represents less than 20% of increased proliferation of hFDPCs)
12,"CCCCN1CCc2cc(/C=C3\C(=O)NC(=O)N(C)C3=O)ccc21 [I-12, 2,4,6(1H,3H,5H)-Pyrimidinetrione, 5-[(1-butyl-2,3-dihydro-1H-indol-5-yl)methylene]-1-methyl-]",B (B represents 20-40%)
13,"CN1C(=O)NC(=O)/C(=C/c2cnc(N(C)C)nc2)C1=O [I-13, 2,4,6(1H,3H,5H)-Pyrimidinetrione, 5-[[2-(dimethylamino)-5-pyrimidinyl]methylene]-1-methyl-]",A (A represents less than 20% of increased proliferation of hFDPCs)
14,CN1C(=O)NC(=O)/C(=C\c2cccc(OCC(=O)O)c2)C1=O [I-14],A (A represents less than 20% of increased proliferation of hFDPCs)
15,"COc1cc([N+](=O)[O-])cc(/C=C2\C(=O)NC(=O)N(C)C2=O)c1O [I-15, 2,4,6(1H,3H,5H)-Pyrimidinetrione, 5-[(2-hydroxy-3-methoxy-5-nitrophenyl)methylene]-1-methyl-]",B (B represents 20-40%)
16,C=CCc1cc(/C=C2\C(=O)NC(=O)N(C)C2=O)cc(OC)c1O [I-16],A (A represents less than 20% of increased proliferation of hFDPCs)
17,"Cc1ccc(-c2nnc(N3CCN(C(=O)C4CCCCC4)CC3)c3ccccc23)cc1 [II-1, Methanone, cyclohexyl[4-[4-(4-methylphenyl)-1-phthalazinyl]-1-piperazinyl]-]",A (A represents less than 20% of increased proliferation of hFDPCs)
18,"Cc1ccc(C(=O)N2CCN(c3nnc(-c4ccc(C)cc4)c4ccccc34)CC2)cc1 [II-2, Methanone, (4-methylphenyl)[4-[4-(4-methylphenyl)-1-phthalazinyl]-1-piperazinyl]-]",B (B represents 20-40%)

row,SMILES,Percent Increase Proliferation of hFDPCs (%)
1,"Cc1ccc(-c2nnc(N3CCN(S(C)(=O)=O)CC3)c3ccccc23)cc1 [II-3, Phthalazine, 1-(4-methylphenyl)-4-[4-(methylsulfonyl)-1-piperazinyl]-]",B (B represents 20-40%)
2,"Cc1ccc(OCC(=O)N2CCN(c3nnc(-c4ccc(C)cc4)c4ccccc34)CC2)cc1 [II-5, Ethanone, 2-(4-methylphenoxy)-1-[4-[4-(4-methylphenyl)-1-phthalazinyl]-1-piperazinyl]-]",B (B represents 20-40%)
3,"CCCC(=O)N1CCN(c2nnc(-c3ccc(C)cc3)c3ccccc23)CC1 [II-6, 1-Butanone, 1-[4-[4-(4-methylphenyl)-1-phthalazinyl]-1-piperazinyl]-]",B (B represents 20-40%)
4,"COc1ccc(N2CCN(C(=O)c3cc(-c4cccs4)nc4ccccc34)CC2)cc1 [III-1, Methanone, [4-(4-methoxyphenyl)-1-piperazinyl][2-(2-thienyl)-4-quinolinyl]-]",A (A represents less than 20% of increased proliferation of hFDPCs)
5,"Cc1cccc(Cn2cnc(NC(=O)c3cc(-c4cccnc4)nc4ccc(C)cc34)n2)c1 [III-2, 4-Quinolinecarboxamide, 6-methyl-N-[1-[(3-methylphenyl)methyl]-1H-1,2,4-triazol-3-yl]-2-(3-pyridinyl)-]",A (A represents less than 20% of increased proliferation of hFDPCs)
6,"Cc1cc(C)n(Cc2ccc(NC(=O)c3cc(-c4ccc(C)c(C)c4)nc4ccccc34)cc2)n1 [III-3, 4-Quinolinecarboxamide, 2-(3,4-dimethylphenyl)-N-[4-[(3,5-dimethyl-1H-pyrazol-1-yl)methyl]phenyl]-]",B (B represents 20-40%)
7,"CCOCCc1nnc(NC(=O)c2cc(-c3ccccc3)nc3ccccc23)s1 [III-4, 4-Quinolinecarboxamide, N-[5-(2-ethoxyethyl)-1,3,4-thiadiazol-2-yl]-2-phenyl-]",B (B represents 20-40%)
8,"Cc1ccc(-c2cc(C(=O)NNC(=O)NC34CC5CC(CC(C5)C3)C4)c3ccccc3n2)c(C)c1 [III-5, 4-Quinolinecarboxylic acid, 2-(2,4-dimethylphenyl)-, 2-[(tricyclo[3.3.1.1^3,7]dec-1-ylamino)carbonyl]hydrazide]",A (A represents less than 20% of increased proliferation of hFDPCs)
9,"CC(C)(C)Nc1nnc(SCc2cc(=O)oc3cc(O)ccc23)s1 [IV-1, 2H-1-Benzopyran-2-one, 4-[[[5-[(1,1-dimethylethyl)amino]-1,3,4-thiadiazol-2-yl]thio]methyl]-7-hydroxy-]",B (B represents 20-40%)
10,"CSc1nnc(SCc2cc(=O)oc3cc(O)ccc23)s1 [IV-2, 2H-1-Benzopyran-2-one, 7-hydroxy-4-[[[5-(methylthio)-1,3,4-thiadiazol-2-yl]thio]methyl]-]",A (A represents less than 20% of increased proliferation of hFDPCs)
11,"COc1ccccc1-n1c(SCc2cc(=O)oc3cc(O)ccc23)nc2ccccc2c1=O [IV-3, 4(3H)-Quinazolinone, 2-[[(7-hydroxy-2-oxo-2H-1-benzopyran-4-yl)methyl]thio]-3-(2-methoxyphenyl)-]",B (B represents 20-40%)
12,"CCC(C)Cc1c(C)sc2[nH]c(SCc3cc(=O)oc4cc(O)ccc34)nc(=O)c12 (stereo not drawn) [IV-4, Thieno[2,3-d] pyrimidin-4(1H)-one, 2-[[(7-hydroxy-2-oxo-2H-1-benzopyran-4-yl)methyl]thio]-6-methyl-5-(2-methylbutyl)-]",A (A represents less than 20% of increased proliferation of hFDPCs)
13,"Cc1ccc(Cn2ncc3c(N4CCCC4)ncnc32)cc1 [V-1, 1H-Pyrazolo[3,4-d] pyrimidine, 1-[(4-methylphenyl)methyl]-4-(1-pyrrolidinyl)-]",A (A represents less than 20% of increased proliferation of hFDPCs)
14,"Cc1ccc(-n2ncc3c(N4CCCCC4)ncnc32)c(C)c1 [V-2, 1H-Pyrazolo[3,4-d] pyrimidine, 1-(2,4-dimethylphenyl)-4-(1-piperidinyl)-]",A (A represents less than 20% of increased proliferation of hFDPCs)
15,"CC1CCCCN1c1nc(-c2ccccc2)nc2sc(-c3ccccc3)cc12 (stereo not drawn) [V-3, Thieno[2,3-d] pyrimidine, 4-(2-methyl-1-piperidinyl)-2,6-diphenyl-]",B (B represents 20-40%)
16,"CCS(=O)(=O)N1CCN(c2ncnc3cc[nH]c23)CC1 [V-4, 5H-Pyrrolo[3,2-d] pyrimidine, 4-[4-(ethylsulfonyl)-1-piperazinyl]-]",A (A represents less than 20% of increased proliferation of hFDPCs)
17,"O=C(C1CCN(S(=O)(=O)c2ccccc2)CC1)N1CCN(Cc2ccc3c(c2)OCO3)CC1 [VI-1, Methanone, [4-(1,3-benzodioxol-5-ylmethyl)-1-piperazinyl][1-(phenylsulfonyl)-4-piperidinyl]-]",A (A represents less than 20% of increased proliferation of hFDPCs)
18,"N#Cc1ccc(S(=O)(=O)N2CCC(C(=O)N3CCN(Cc4ccc5c(c4)OCO5)CC3)CC2)cc1 [VI-2, Benzonitrile, 4-[[4-[[4-(1,3-benzodioxol-5-ylmethyl)-1-piperazinyl]carbonyl]-1-piperidinyl]sulfonyl]-]",B (B represents 20-40%)
